Experiments:
[1] = test system: Green peach aphid (Myzus persicae); experiment: Myzus persicae test (MYZUPE), spray treatment of infested bell pepper plants; assay type: in vivo; details: 0.8 ppm, after 6 d, spray on bell pepper plants (Capsicum annuum); 100% = all aphids killed, 0% = none killed
Protocol: Myzus persicae Test (MYZUPE)
(§1) To produce a suitable preparation of active compound, 1 part by weight of active compound is mixed with the stated amounts of solvent and emulsifier, and the concentrate is diluted with emulsifier-containing water to the desired concentration. If addition of ammonium salts or ammonium salts and penetrant is required, the appropriate amount is added by pipette after dilution of the respective finished preparation solution.
Bell pepper plants (Capsicum annuum) which are heavily infested by the Green peach aphid (Myzus persicaei) are treated by spraying with the active compound preparation of the desired concentration.
(§2) After the desired period of time, the kill in % is determined. 100% means that all aphids have been killed; 0% means that none of the aphids have been killed.
(§3) In this test, for example, the following embodiments of the invention show good activity: see table below

[2] = test system: cotton aphid (Aphis gossypii); experiment: Aphis gossypii test (APHIGO), spray treatment of infested cotton leaves; assay type: in vivo; details: 0.8 ppm, after 6 d, spray on cotton leaves (Gossypium hirsutum); 100% = all aphids killed, 0% = none killed
Protocol: Aphis gossypii Test (APHIGO)
as §1
Cotton leaves (Gossypium hirsutum) which are heavily infested by the cotton aphid (Aphis gossypii) are sprayed with an active compound preparation of the desired concentration.
as §2, §3

SMILES: CNC(=O)c1cc(Cl)cc(C)c1NC(=O)c1cc(Br)nn1-c1ncccc1Cl [Example I-1-3]
- kill in % (% 6 d) [1]: 0%
- kill in % (% 6 d) [2]: 0%
